Measurements published in ChEMBL document CHEMBL1147906, “A comparative study of mesoionic compounds in Leishmania sp. and toxicity evaluation” (Eur J Med Chem, 2007).

Columns and labels:
[1] = Cytotoxicity against BALB/c mouse peritoneal macrophages assessed as cell viability after 24 hrs by MTT assay; type: cell-based, Peritoneal macrophage cell; conditions: read-out: TD50
[2] = tested on: Leishmania braziliensis; experiment: Antileishmanial activity against Leishmania braziliensis MCAN/BR/98/R619 promastigotes; type: functional; conditions: read-out: ED50 (the source's name)
[3] = tested on: Leishmania chagasi; experiment: Antileishmanial activity against Leishmania chagasi MCAN/BR/97/P142 promastigotes; type: functional; conditions: read-out: ED50 (the source's name)

Row | EC50 [2] [µM] | EC50 [3] [µM] | SMILES | CC50 at 24 h [1] [µM]
1 | 49.6 | 22.8 | C(=C\c1sc(Nc2ccccc2)n[n+]1-c1ccccc1)/c1ccccc1 | 3.06
2 | 46.2 | 8.31 | COc1ccc(/C=C/c2sc(Nc3ccccc3)n[n+]2-c2ccccc2)cc1 | 1.13
3 | 70.8 | 22.8 | O=[N+]([O-])c1ccc(/C=C/c2sc(Nc3ccccc3)n[n+]2-c2ccccc2)cc1 | 5.49
4 | 6.23 | 13.2 | Clc1ccc(/C=C/c2sc(Nc3ccccc3)n[n+]2-c2ccccc2)cc1 | 12
5 | 28.1 | 16 | N#Cc1ccc(/C=C/c2sc(Nc3ccccc3)n[n+]2-c2ccccc2)cc1 | 441
6 | 13 | 33.3 | CCOc1ccc(/C=C/c2sc(Nc3ccccc3)n[n+]2-c2ccccc2)cc1 | 9.73
7 | 221 | 23.6 | O=[N+]([O-])c1cccc(/C=C/c2sc(Nc3ccccc3)n[n+]2-c2ccccc2)c1 | 5.54
8 | 1.72 | 5.17 | Clc1cccc(/C=C/c2sc(Nc3ccccc3)n[n+]2-c2ccccc2)c1 | 6.23
9 | 25.9 | 145 | Brc1cccc(/C=C/c2sc(Nc3ccccc3)n[n+]2-c2ccccc2)c1 | 2.47
10 | 20.7 | 31.1 | Cc1ccc(/C=C/c2sc(Nc3ccccc3)n[n+]2-c2ccccc2)cc1 | 4.94
11 | 5.1 | 3.42 | Fc1ccc(/C=C/c2sc(Nc3ccccc3)n[n+]2-c2ccccc2)cc1 | 5.82
12 | 2.93 | 9.97 | Brc1ccc(/C=C/c2sc(Nc3ccccc3)n[n+]2-c2ccccc2)cc1 | 6.59
13 | 376 | 415 | Oc1ccc(/C=C/c2sc(Nc3ccccc3)n[n+]2-c2ccccc2)cc1 | 32
14 | 30.6 | 4.75 | COc1cccc(/C=C/c2sc(Nc3ccccc3)n[n+]2-c2ccccc2)c1 | 0.61
15 | 64.2 | 27.5 | N=C(N)c1ccc(OCCCCCOc2ccc(C(=N)N)cc2)cc1 [PENTAMIDINE] | 2.21
